Experimental data as given in patent US10758534B2 (Vertex Pharmaceuticals Incorporated, priority 2014, dated 2020).

Molecular target: T1, F508del (Homo sapiens, UniProt P13569, DEL508-508)
T1 construct: expressed in transfected cells
Experiment: Protocol 1: membrane potential optical assay (FLIPR III, voltage sensing dye), identification of potentiator compounds
Type: cell-based
Settings: Table 3, compounds of Table 1
Summary of the method: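 Read-out: change in voltage-sensing dye fluorescence (FLIPR III) as a measure of F508del conductance. Temperature-corrected (27° C, 24 hrs) NIH 3T3 cells expressing F508del are pretreated with potentiators, dye-loaded, then stimulated with forskolin under a chloride ion gradient using chloride-free gluconate bath.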

T1 sequence (P13569 with tags, fused parts or gaps DEL508-508): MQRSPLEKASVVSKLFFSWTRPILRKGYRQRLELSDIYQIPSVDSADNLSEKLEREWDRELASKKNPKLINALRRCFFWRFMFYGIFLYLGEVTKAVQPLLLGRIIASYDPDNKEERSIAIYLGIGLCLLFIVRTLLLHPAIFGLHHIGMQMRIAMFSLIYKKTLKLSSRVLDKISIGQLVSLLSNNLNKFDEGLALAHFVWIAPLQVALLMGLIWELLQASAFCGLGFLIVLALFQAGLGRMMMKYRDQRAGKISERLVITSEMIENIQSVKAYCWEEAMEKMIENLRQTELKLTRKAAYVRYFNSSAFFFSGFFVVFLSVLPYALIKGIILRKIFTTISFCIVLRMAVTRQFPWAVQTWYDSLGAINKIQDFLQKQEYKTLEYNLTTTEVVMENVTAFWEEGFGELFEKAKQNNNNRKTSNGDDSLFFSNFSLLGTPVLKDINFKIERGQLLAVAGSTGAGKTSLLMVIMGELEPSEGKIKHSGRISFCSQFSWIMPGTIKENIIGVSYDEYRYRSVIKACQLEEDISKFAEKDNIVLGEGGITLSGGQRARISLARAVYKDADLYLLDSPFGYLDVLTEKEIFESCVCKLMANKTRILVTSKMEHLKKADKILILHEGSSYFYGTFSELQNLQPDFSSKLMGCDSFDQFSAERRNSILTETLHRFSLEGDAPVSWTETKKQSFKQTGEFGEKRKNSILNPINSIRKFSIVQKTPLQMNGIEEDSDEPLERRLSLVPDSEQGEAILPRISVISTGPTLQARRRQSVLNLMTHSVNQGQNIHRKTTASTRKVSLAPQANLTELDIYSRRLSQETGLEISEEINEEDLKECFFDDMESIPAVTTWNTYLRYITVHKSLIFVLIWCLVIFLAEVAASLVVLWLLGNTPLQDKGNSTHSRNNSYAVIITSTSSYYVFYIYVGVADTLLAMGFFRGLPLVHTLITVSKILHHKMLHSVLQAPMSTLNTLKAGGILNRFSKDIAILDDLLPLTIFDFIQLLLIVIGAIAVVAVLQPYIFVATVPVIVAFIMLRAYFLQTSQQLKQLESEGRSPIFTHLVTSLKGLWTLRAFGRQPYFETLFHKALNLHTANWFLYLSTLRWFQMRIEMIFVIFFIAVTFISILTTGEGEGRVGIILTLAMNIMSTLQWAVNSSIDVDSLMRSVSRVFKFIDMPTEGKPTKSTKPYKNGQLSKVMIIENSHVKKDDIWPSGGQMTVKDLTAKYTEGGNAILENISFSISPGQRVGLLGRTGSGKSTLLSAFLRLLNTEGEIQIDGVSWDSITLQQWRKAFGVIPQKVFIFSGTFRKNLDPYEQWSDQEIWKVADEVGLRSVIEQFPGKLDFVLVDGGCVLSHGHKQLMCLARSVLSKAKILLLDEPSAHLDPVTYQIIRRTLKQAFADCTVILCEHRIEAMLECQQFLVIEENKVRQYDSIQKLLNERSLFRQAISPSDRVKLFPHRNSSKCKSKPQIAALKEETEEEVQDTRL

Row | EC30 | SMILES
1 | ++ (“++” means between 3 uM and 10 uM) | COc1ccc(-c2ccc(C(=O)NS(=O)(=O)c3cccc(N)n3)c(Oc3c(C)cc(C)cc3C)n2)cc1OC [Compound 1146, N-[(6-amino-2-pyridyl)sulfonyl]-6-(3,4-dimethoxyphenyl)-2-(2,4,6-trimethylphenoxy)pyridine-3-carboxamide]
2 | ++ (“++” means between 3 uM and 10 uM) | CCCCCN1CCN(c2cccc(S(=O)(=O)NC(=O)c3cccnc3N3CC(C)CC3(C)C)n2)CC1 (centres unmarked) [Compound 1985, N—[[6-(4-pentylpiperazin-1-yl)-2-pyridyl]sulfonyl]-2-(2,2,4-trimethylpyrrolidin-1-yl)pyridine-3-carboxamide]
3 | +++ (“+++” means <3 uM) | CC(C)Oc1ccc(-c2ccc(C(=O)NS(=O)(=O)c3cccc(N)n3)c(N3CCC[C@H]3C(F)(F)F)n2)cn1 [Compound 1248, N-[(6-amino-2-pyridyl)sulfonyl]-6-(6-isopropoxy-3-pyridyl)-2-[(2S)-2-(trifluoromethyl)pyrrolidin-1-yl]pyridine-3-carboxamide]
4 | +++ (“+++” means <3 uM) | Cc1cc(C)c(Oc2nc(C3=CCCC3)ccc2C(=O)NS(=O)(=O)c2cccc(N)n2)c(C)c1 [Compound 1330, N-[(6-amino-2-pyridyl)sulfonyl]-6-(cyclopenten-1-yl)-2-(2,4,6-trimethylphenoxy)pyridine-3-carboxamide]
5 | ++ (“++” means between 3 uM and 10 uM) | CC(C)Oc1ccc(-c2ccc(C(=O)NS(=O)(=O)c3cccc(N)n3)c(N3CCCCC3C)n2)cn1 (centres unmarked) [Compound 1182, N-[(6-amino-2-pyridyl)sulfonyl]-6-(6-isopropoxy-3-pyridyl)-2-(2-methyl-1-piperidyl)pyridine-3-carboxamide]
6 | + (“+” means greater than 10 uM) | Cc1cc(C)c(Oc2nc(-c3cnc(NC4CC4)nc3)ccc2C(=O)NS(=O)(=O)c2cccc(N)n2)c(C)c1 [Compound 1126, N-[(6-amino-2-pyridyl)sulfonyl]-6-[2-(cyclopropylamino)pyrimidin-5-yl]-2-(2,4,6-trimethylphenoxy)pyridine-3-carboxamide]
7 | +++ (“+++” means <3 uM) | Cc1cc(-c2ccc(C(=O)NS(=O)(=O)c3cccc(N)n3)c(N3C[C@@H](C)CC3(C)C)n2)ccc1F [Compound 1930, N-[(6-amino-2-pyridyl)sulfonyl]-6-(4-fluoro-3-methyl-phenyl)-2-[(4S)-2,2,4-trimethylpyrrolidin-1-yl]pyridine-3-carboxamide]
8 | +++ (“+++” means <3 uM) | CC1CN(c2ncccc2C(=O)NS(=O)(=O)c2cccc(OC3CCCCC3)n2)C(C)(C)C1 (centres unmarked) [Compound 1908, N—[[6-(cyclohexoxy)-2-pyridyl]sulfonyl]-2-(2,2,4-trimethylpyrrolidin-1-yl)pyridine-3-carboxamide]

Row | SMILES | EC30
9 | CC(C)COc1cc(F)cc(-c2ccc(C(=O)NS(=O)(=O)c3cccc(N)n3)c(OC3CCCCCC3)n2)c1 [Compound 1263, N-[(6-amino-2-pyridyl)sulfonyl]-2-(cycloheptoxy)-6-(3-fluoro-5-isobutoxy-phenyl)pyridine-3-carboxamide] | +++ (“+++” means <3 uM)
10 | CC(C)COc1cc(F)cc(-c2ccc(C(=O)NS(=O)(=O)N[C@H]3CCNC3)c(N3C[C@@H](C)CC3(C)C)n2)c1 [Compound 1935, 6-(3-fluoro-5-isobutoxy-phenyl)-N—[[(3S)-pyrrolidin-3-yl]sulfamoyl]-2-[(4S)-2,2,4-trimethylpyrrolidin-1-yl]pyridine-3-carboxamide] | +++ (“+++” means <3 uM)
11 | Cc1cn(-c2ccc(C(=O)NS(=O)(=O)c3ccc[nH]c3=O)c(N3C[C@@H](C)CC3(C)C)n2)nc1OCC(C)C [Compound 1743, 6-(3-isobutoxy-4-methyl-pyrazol-1-yl)-N-[(2-oxo-1H-pyridin-3-yl)sulfonyl]-2-[(4S)-2,2,4-trimethylpyrrolidin-1-yl]pyridine-3-carboxamide] | +++ (“+++” means <3 uM)
